In brackets after ≈: the same amount, converted by molar mass.
Columns and labels:
[1] = test system: larval settlement of the barnacle Balanus amphitrite; assay: Bioassay for antifouling activity against larval settlement (cyprids, 24-well plate, 24 h)
Method: (§1) The larvae were reared in freshly filtered natural seawater (FSW, 0.45 μm, 32S salinity) and fed with Chaetoceros gracilis Schutt at 24° C. in the Coastal Marine Laboratory, the Hong Kong University of Science and Technology (HKUST). Larvae that were competent to settle (called cyprids) were stored for 2 days at 8° C. prior to being used in the bioassays. Ten μl of each test sample dissolved in dimethyl sulfoxide (DMSO) were transferred into a well in 24-well polystyrene plate after the addition of 1 ml of FSW. The control wells contained 1 ml of FSW and 10 μl of DMSO. About 15 cyprids were added in each well with triplicate samples being tested.
as §1, with “freshly filtered nature seawater (FSW,” for “freshly filtered natural seawater (FSW,”, “Technology (HKUST). Cyprids (competent larvae) were stored” for “Technology (HKUST). Larvae that were competent to settle (called cyprids) were stored”, “8° C. (aged cyprids) prior to” for “8° C. prior to”

[2] = Hydrolysis experiment of genistein (ASTM E895-89, HPLC); assay type: physicochemical; details: 50° C. in dark, a week
Method: The experiments were carried out according to the method described in ASTM (1993). Buffer solutions consisting of 20 mM of sodium acetate were prepared with adjusted pH level at 5, 7, and 9. FSW was the same as those used in bioassays. Artificial seawater (ASW) was prepared as van't Hoff formula (460 mM NaCl, 10.1 mM KCl, 9.2 mM CaCl2, 35.9 mM MgCl2, 17.5 mM MgSO4, 10 mM Tris-HCl, and pH 8.2). Test solution (900 ml) containing 4 μg genistein was divided into nine test glass tubes (100 ml each), and then the tubes were tightly capped. Immediately after preparation of the test solutions, three tubes were loaded onto a Sep-Pak tC18 ENV column (Waters, USA), preconditioned for use by eluting it with methanol and water under reduced pressure. The column after loading the test sample was eluted with water to remove any salts in the test samples, and was then eluted with 2.5 ml of DMSO. Thus, the eluate was 40 times more concentrated than the sample in the original test solution; this concentrated solution was subjected to HPLC analysis. The HPLC system (600, Waters, USA) was equipped with a photodiode array detector (996, Waters, USA) installed in tandem after outlet of the column (Phenomenex Luna 5λ C18 100A, 250×4.60 mm, 5 micron). The solvents used were (A) 5% acetonitrile and (B) 95% acetonitrile at the isocratic flow rates of (A) 0.53 ml min^−1 and (B) 0.47 ml min^−1 at 40° C., respectively. A volume of ten μl of elute was injected into the column using an autosampler (717plus, Waters, USA). The UV absorption at 1=260 nm was used for quantification. The analytical data were shown as the average value of triplicate analyses. The remaining six tubes were kept at 50° C. in the dark in an incubator for a period of four or seven days according to ASTM Procedure E895-89 (ASTM, 1993). After the incubations, each of three test samples was subjected to HPLC analysis, following the same concentration process as described above to determine the remaining concentration of genistein.

[3] = test system: barnacle Balanus amphitrite; assay: Field experiment: resin-based paint on PVC panels submerged at pier; assay type: in vivo
Method: Test compounds (genistein, Cu2O, or their mixture) were mixed with resin-based paint (Permoglaze, Akzo Nobel Decorative Coatings, Lancashire, UK) with addition of 15% of (w/w) xylene, and then sprayed on the surface of PVC panels (size: 10 cm×10 cm×0.5 cm). Genistein was incorporated into paint by 10 and 20% of the dry weight as the low and high concentrations, respectively. In the experiments of combination effects, both Cu2O and genistein at 10% of dry weight were added. The controls used was a resin based paint with addition of 15% (w/w) of xylene only. Each of the tested paints was mixed for more than 8 h before being spread onto panels. The thickness of each paint film was between 100 and 150 μm. The painted panels were air-dried completely prior to being tied to PVC frames and deployed vertically at a depth of 1-1.5 m at the pier of HKUST from March to June in 2007. The numbers of adult barnacle B. amphitrite on the surface were counted and the density on each panel was calculated after their submergences. Four replicates were tested for each sample.

[4] = Bioassay for antifouling activity against larval settlement (cyprids, 24-well plate, 24 h); details: Balanus amphitrite (barnacle, cyprid larvae), in vivo
Method: as §1
as §1, with “freshly filtered nature seawater (FSW,” for “freshly filtered natural seawater (FSW,”, “Technology (HKUST). Cyprids (competent larvae) were stored” for “Technology (HKUST). Larvae that were competent to settle (called cyprids) were stored”, “8° C. (aged cyprids) prior to” for “8° C. prior to”

[5] = Amphibalanus amphitrite, Table 2, larval settlement of Balanus amphitrite, mean ± standard deviation of at least three replicates
[6] = Table 2, LC50 used is the highest concentration causing <50% death of larvae
[7] = Amphibalanus amphitrite, Table 2, larval settlement
[8] = judged from LC50/EC50, standard of Avelin et al. (1993): nontoxic if higher than 10
[9] = single compound at 10% of dry weight of paint, three months submergence

Question: Which EC50 [1, 5] does the source give for COc1ccc(-c2oc3cc(OC)cc(O)c3c(=O)c2O)cc1 [Sample F-8, 3,5-dihydroxy-7,4′-dimethoxyflavone] here?
Answer: 11.8 ± 2.1 mg/L (≈ 37.5 µM)

Question: And the LC50/EC50 [1, 6]?
Answer: >4.2

Question: What does the source list for O=c1cc(-c2ccc(O)cc2)oc2cc(O)cc(O)c12 [Sample F-9, 4′,5,7-trihydroxy-flavone]?
Answer: EC50 [1, 7]: ~3 mg/L (≈ 11.1 µM); EC50 [1, 5]: 3.1 ± 0.3 mg/L (≈ 11.5 µM); LC50/EC50 [1, 6]: >16.1; toxicity (in words) [1, 8]: almost no toxicity

Question: Which results are given for O=c1cc(-c2ccc(O)c(O)c2)oc2cc(O)cc(O)c12 [Sample F-10]?
Answer: EC50 [1, 7]: ~3 mg/L (≈ 10.5 µM); EC50 [1, 5]: 3.8 ± 0.4 mg/L (≈ 13.3 µM); LC50/EC50 ([1]; Balanus amphitrite, in vivo, 24 h): >13.2; toxicity (in words) ([1]; in vivo): almost no toxicity

Question: What does the source list for COc1ccc(-c2oc3cc(OC)c(OC)c(O)c3c(=O)c2OC)cc1O [Sample F-3]?
Answer: EC50 [1, 7]: ~3 mg/L (≈ 8.01 µM); EC50 [1, 5]: 3 ± 0.4 mg/L (≈ 8.01 µM); LC50/EC50 [1, 6]: >16.7; toxicity (in words) ([1]; in vivo): almost no toxicity

Question: For COc1c(OC)c(O)c2c(=O)c(OC)c(-c3ccc(O)cc3)oc2c1OC [Sample F-1, 4′,5-dihydroxy-3,6,7,8 tetramethoxy-flavone], which EC50 [1, 7] is on record?
Answer: ~3 mg/L (≈ 8.01 µM)

Question: What about the EC50 [1, 5] of the same compound?
Answer: 3.4 ± 0.5 mg/L (≈ 9.08 µM)

Question: What about the LC50/EC50 [1, 6] of the same compound?
Answer: >14.7

Question: And the “toxicity (in words)” value ([1]; in vivo)?
Answer: almost no toxicity

Question: What does the source list for O=c1c(-c2ccc(O)cc2)coc2cc(O)cc(O)c12 [Sample F-12, 4′,5,7-trihydroxy-isoflavone]?
Answer: genistein decomposed ([2]; artificial seawater (ASW)): ~35%; genistein decomposed ([2]; filtered natural seawater (FSW)): ~26%; genistein decomposed ([2]; pH 5.0 buffer solution): About 27%; genistein decomposed ([2]; pH 7.0 buffer solution): ~31%; genistein decomposed ([2]; pH 9.0 buffer solution): ~37%; density of barnacles fouled on the test panels ([3]; 10% of dry weight of paint, one month submergence, control 0.32 ± 0.039): 0.12 ± 0.031 adults cm^−2; density of barnacles fouled on the test panels ([3]; 10% of dry weight of paint, two months submergence, control 0.71 ± 0.053): 0.57 ± 0.055 adults cm^−2; density of barnacles fouled on the test panels ([3]; 20% of dry weight of paint, one month submergence, control 0.32 ± 0.039): 0.08 ± 0.027 adults cm^−2; density of barnacles fouled on the test panels ([3]; 20% of dry weight of paint, two months submergence, control 0.71 ± 0.053): 0.13 ± 0.029 adults cm^−2; density of barnacles fouled on the test panels [3, 9]: 0.77 ± 0.042 adults cm^−2; EC50 ([1]; 24 h, genistein from Streptomyces fungicidicus, larval settlement, 24 h at 24° C., method of Rittschof et al. (1994)): 3 mg/L (≈ 11.1 µM); EC50 [1, 7]: 3 mg/L (≈ 11.1 µM); EC50 [1, 5]: 3 ± 0.3 mg/L (≈ 11.1 µM); concentration at which inhibitory activity against larvae settlement was observed (as low as) ([1]; FIG. 2): 0.5 µg/mL; LC50/EC50 [1, 6]: >16.7; LC50/EC50 ([1]; Table 2, genistein purified from extract of Genista tinctoria): > 16.7; larvae settled ([1]; concentration of 8 μg/ml, control 90% settlement): 10%; LC50/EC50 ([1]; genistein from Streptomyces fungicidicus): > 16.7; toxicity (in words) [1, 8]: nontoxic; LC50 at 24 h [4]: > 50 mg/L

Question: What does the source list for COc1ccc(-c2coc3c(OC)c(O)ccc3c2=O)cc1 [Sample F-2, 7-hydroxy-8,4′-dimethoxyisoflavone]?
Answer: EC50 [1, 5]: 13.3 ± 2.5 mg/L (≈ 44.6 µM); LC50/EC50 [1, 6]: >7.50

Question: With COc1cc2oc(-c3ccc(O)cc3)c(OC)c(=O)c2c(O)c1OC [Sample F-4, 4′,5,-dihydroxy-3,6,7-trimethoxy-flavone] as the compound, how does the EC50 [1, 7] read?
Answer: ~3 mg/L (≈ 8.71 µM)

Question: What about the EC50 [1, 5] of the same compound?
Answer: 2.5 ± 0.3 mg/L (≈ 7.26 µM)

Question: And the LC50/EC50 [1, 6]?
Answer: >20.0

Question: And the “toxicity (in words)” value ([1]; in vivo)?
Answer: almost no toxicity

Question: Which EC50 [1, 5] does the source give for COc1ccc(-c2oc3c(CC=C(C)C)c(O[C@@H]4O[C@H](CO)[C@@H](O)[C@H](O)[C@H]4O)cc(O)c3c(=O)c2O[C@@H]2O[C@@H](C)[C@H](O)[C@@H](O)[C@H]2O)cc1 [Sample F-16, icariin] here?
Answer: 35.3 ± 4.2 mg/L (≈ 52.2 µM)

Question: What about the LC50/EC50 [1, 6] of the same compound?
Answer: >2.8

Question: With Cu2O [reference compound] as the compound, how does the “density of barnacles fouled on the test panels” value [3, 9] read?
Answer: 0.81 ± 0.06 adults cm^−2

Question: Which results are given for O=c1cc(-c2ccccc2)oc2cccc(O)c12 [Sample F-17, 5-monohydroxy-flavone]?
Answer: EC50 [1, 7]: ~3 mg/L (≈ 12.6 µM); EC50 [1, 5]: 2.8 ± 0.3 mg/L (≈ 11.8 µM); LC50/EC50 [1, 6]: >17.9; toxicity (in words) [1, 8]: almost no toxicity

Question: For C[C@@H]1O[C@@H](OC[C@H]2O[C@@H](Oc3c(-c4ccc(O)c(O)c4)oc4cc(O)cc(O)c4c3=O)[C@H](O)[C@@H](O)[C@@H]2O)[C@H](O)[C@H](O)[C@H]1O [Sample F-5, neoisorutin], which LC50/EC50 [1, 6] is on record?
Answer: >5.0

Question: What about the EC50 ([1]; Table 2, larval settlement of Balanus amphitrite, mean ± standard deviation of at least three replicates) of the same compound?
Answer: 40.1 ± 3.4 mg/L (≈ 65.7 µM)

Question: With O=c1c(O)c(-c2ccc(O)cc2)oc2cc(O)cc(O)c12 [Sample F-6, kaempferol] as the compound, how does the EC50 [1, 5] read?
Answer: 9.6 ± 1.4 mg/L (≈ 33.5 µM)

Question: What about the LC50/EC50 [1, 6] of the same compound?
Answer: >5.2

Source: patent US8557331B2, “Antifouling method and composition using chromen-4-one derivatives” (The Hong Kong University of Science and Technology, priority 2008, dated 2013)
